Assays:
Met [1] = molecular target: T1, Met (Homo sapiens (Human), UniProt P08581); test: Human Met kinase assay (33P radiometric, KinaseProfiler); type: biochemical; settings: 10 μM ATP, read-out: c-Met IC50
Protocol: (§1) Kinase activity and compound inhibition were investigated using the ^33P-Phosphoryl transfer radiometric kinase assay, performed using the KinaseProfiler™ service of Eurofins Pharma Discovery Services UK Limited. Dose-response experiments were performed using nine compound concentrations in a 96-well microtiter plate. For each assay, all compounds were prepared to a 50× final assay concentration (50 μM) in 100% DMSO, then diluted in a half-log series, with the final top concentration at 1 μM. This working stock of the compound was added to the assay well as the first component in the reaction, followed by the remaining components as detailed in the following assay protocols below. The positive control wells (100% kinase activity) contain all components of the reaction including 2% DMSO (control for solvent effects), except the compound of interest. Blank wells contain all components of the reaction, with the reference inhibitor, staurosporine. This reference compound was used to abolish kinase activity and generated the 0% kinase activity base-line. IC50 values were calculated by nonlinear regression analysis using the sigmoidal dose-response (variable slope) curve fit on XLFit version 5.3 (ID Business Solutions).
Human Met (residues R974-S1390 with A1209G and V1290L, 3.4 nM) was incubated with 8 mM MOPS pH 7.0, 0.2 mM EDTA, 250 μM KKKGQEEEYVFIE (SEQ ID NO. 45), 1 mM sodium orthovanadate, 5 mM […], 10 mM magnesium acetate, and 10 μM [γ-33P-ATP]. The reaction was initiated by the addition of the Mg/ATP mix. After incubation for 40 minutes at room temperature, the reaction was stopped by the addition of phosphoric acid to a concentration of 0.5%. A reaction aliquot of 10 μL was then spotted onto a P30 filtermat and washed four times for 4 minutes in 0.425% phosphoric acid and once in methanol prior to drying and scintillation counting. Incorporated 33P was measured using the Wallac Microbeta scintillation counter (Perkin Elmer).

Human Axl = Human Axl (Homo sapiens (Human), UniProt P30530, Q764R); test: Human AXL kinase assay (33P radiometric, KinaseProfiler); type: biochemical; settings: 10 μM ATP
Protocol: as §1
Human Axl (residues H473-A894 with Q764R, 161 nM) was incubated with 8 mM MOPS pH 7.0, 0.2 mM EDTA, 250 μM KKSRGDYMTMQIG (SEQ ID NO. 43), 10 mM magnesium acetate and 10 μM [γ-33P-ATP]. The reaction was initiated by the addition of the Mg/ATP mix. After incubation for 40 minutes at room temperature, the reaction was stopped by the addition of phosphoric acid to a concentration of 0.5%. A reaction aliquot of 10 μL was then spotted onto a P30 filtermat and washed four times for 4 minutes in 0.425% phosphoric acid and once in methanol prior to drying and scintillation counting. Incorporated ^33P was measured using the Wallac Microbeta scintillation counter (Perkin Elmer).

Mer [2] = molecular target: T2, Mer (Homo sapiens (Human), UniProt Q12866); test: Human Mer kinase assay (33P radiometric, KinaseProfiler); type: biochemical; settings: 10 μM ATP
Protocol: as §1
Target sequence in this assay (Q12866 557-882): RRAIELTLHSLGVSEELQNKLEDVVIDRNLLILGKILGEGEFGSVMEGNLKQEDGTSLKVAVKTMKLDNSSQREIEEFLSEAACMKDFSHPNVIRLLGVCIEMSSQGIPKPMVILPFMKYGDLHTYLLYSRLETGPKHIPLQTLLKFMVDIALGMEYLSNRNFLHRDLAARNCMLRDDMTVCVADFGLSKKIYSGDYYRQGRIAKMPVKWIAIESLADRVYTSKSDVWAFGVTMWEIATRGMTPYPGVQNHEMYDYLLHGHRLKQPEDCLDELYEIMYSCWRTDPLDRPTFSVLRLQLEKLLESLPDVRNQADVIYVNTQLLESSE
Human Mer (residues R557-E882 with H628Q and R794A, 0.7 nM) was incubated with 8 mM MOPS pH 7.0, 0.2 mM EDTA, 30 mM NaCl, 250 μM GGMEDIYFEFMGGKKK (SEQ ID NO. 44), 10 mM magnesium acetate, and 10 μM [γ-^33P-ATP]. The reaction was initiated by the addition of the Mg/ATP mix. After incubation for 40 minutes at room temperature, the reaction was stopped by the addition of phosphoric acid to a concentration of 0.5%. A reaction aliquot of 10 μL was then spotted onto a P30 filtermat and washed four times for 4 minutes in 0.425% phosphoric acid and once in methanol prior to drying and scintillation counting. Incorporated ^33P was measured using the Wallac Microbeta scintillation counter (Perkin Elmer).

KDR = KDR (Homo sapiens (Human), UniProt P35968); test: KDR autophosphorylation ELISA in HUVEC cells; type: cell-based; settings: cellular, VEGF165-stimulated, phospho-KDR ELISA
Outline: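 Read-out: phospho-KDR ELISA on cell lysates, quantified against a phospho-KDR standard, normalised to VEGF-stimulated DMSO (100%) and unstimulated (0%) wells, IC50 by 4-parameter fit. Cells were 24 h serum-starved HUVEC given compound for 1 h, then 100 ng/mL VEGF165 for 5 min.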

Mer [3] = molecular target: T2, Mer; test: Mer autophosphorylation ELISA in transient transfected 293A cells; type: cell-based; settings: cellular, MERTK-transfected 293A cells, phospho-Mer ELISA
Protocol: 293A cells (Thermo Fisher #R70507) were seeded at 1.5×10^6 cells/well onto 100 mm dish (Greiner #664169), in DMEM (Thermo Fisher #11995-040) containing 10% FBS (Thermo Fisher #26140-079), 1% MEM NEAA (Thermo Fisher #11140-050), 1% GlutaMax (Thermo Fisher #35050-061), and 1% Penicillin Streptomycin (Thermo Fisher #15140-122). 293A cells were incubated at 37° C., 5% CO2 for 24 h and then transfected with 6 μg MERTK DNA (Genecopoeia #EX-Z8208-M02) using TransIT LT1 transfection reagent (Mirus-Bio #MIR2305). After 24 h incubation, the transfected 293A cells were seeded at 1×10^5 cells/well onto 96-well plates (Corning #3904) in DMEM growth medium overnight. Test compounds were serially diluted to produce an 8-point dose curve in fresh serum-free medium to a final concentration of 0.3% DMSO (vehicle) and added to the cells and incubated for 1 h. Cells were then immediately lysed with 150 μL of cold 1× lysis buffer [20 mM Tris, 137 mM sodium chloride, 2 mM EDTA, 10% glycerol, 1% NP-40 alternative, 1 mM activated sodium orthovanadate, 1 mM PefaBloc SC (Sigma-Aldrich #11429868001), protease/phosphatase inhibitor tablet (Thermo Fisher #A32959)]. Lysates were clarified by centrifugation and 50 μL/well added into the human phospho-Mer DuoSet IC ELISA (R&D Systems #DYC2579-2). Assay was performed according to manufacturer's instructions and sample phospho-Mer concentrations were extrapolated using human phospho-Mer control (R&D Systems #841793) as a standard. Positive control wells (100% activity) contained DMSO-treated cell lysates. Negative control wells (0% activity) contained reference inhibitor-treated cell lysates. IC50 values were calculated by nonlinear regression analysis using a 4-parameter logistic curve fit in ActivityBase XE (IDBS).
Target sequence in this assay (Q12866 21-999): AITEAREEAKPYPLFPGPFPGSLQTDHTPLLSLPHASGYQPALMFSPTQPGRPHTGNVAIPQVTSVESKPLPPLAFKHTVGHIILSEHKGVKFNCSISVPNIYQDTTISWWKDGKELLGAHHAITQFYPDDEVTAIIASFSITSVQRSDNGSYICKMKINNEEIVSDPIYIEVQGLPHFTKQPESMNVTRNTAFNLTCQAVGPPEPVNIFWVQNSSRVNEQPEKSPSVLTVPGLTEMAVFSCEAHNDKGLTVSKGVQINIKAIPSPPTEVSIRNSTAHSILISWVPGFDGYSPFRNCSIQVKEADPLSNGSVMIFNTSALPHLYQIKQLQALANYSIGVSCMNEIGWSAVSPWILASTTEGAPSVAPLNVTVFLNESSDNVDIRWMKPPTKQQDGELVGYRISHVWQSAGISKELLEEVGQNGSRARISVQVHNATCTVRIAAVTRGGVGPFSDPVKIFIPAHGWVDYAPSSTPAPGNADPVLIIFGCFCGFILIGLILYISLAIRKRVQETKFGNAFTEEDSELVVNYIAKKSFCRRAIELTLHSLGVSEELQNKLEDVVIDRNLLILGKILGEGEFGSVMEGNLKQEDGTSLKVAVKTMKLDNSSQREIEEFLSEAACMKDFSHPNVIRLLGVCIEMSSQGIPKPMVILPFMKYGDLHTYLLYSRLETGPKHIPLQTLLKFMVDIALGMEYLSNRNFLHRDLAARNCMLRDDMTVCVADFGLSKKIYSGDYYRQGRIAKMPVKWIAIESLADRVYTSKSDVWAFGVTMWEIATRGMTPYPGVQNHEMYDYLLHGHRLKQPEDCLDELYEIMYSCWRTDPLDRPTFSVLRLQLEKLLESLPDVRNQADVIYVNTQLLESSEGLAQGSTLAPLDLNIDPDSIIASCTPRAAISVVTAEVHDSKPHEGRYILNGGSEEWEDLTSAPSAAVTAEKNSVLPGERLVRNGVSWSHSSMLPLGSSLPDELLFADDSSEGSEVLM

Met [4] = molecular target: T1, Met; test: Met autophosphorylation ELISA in PC-3 cells; type: cell-based; settings: cellular, HGF-stimulated, phospho-Met ELISA, read-out: c-Met IC50
Outline: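 PC-3 cells serum-starved 3 h were treated 1 h with an 8-point compound series (0.3% DMSO), then stimulated 10 min with 100 ng/mL human HGF. Phospho-Met (panTyr) in lysates was measured by sandwich ELISA against DMSO (100%) and reference-inhibitor (0%) controls, and IC50 came from a 4-parameter logistic fit.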
Target sequence in this assay (P08581 25-1390): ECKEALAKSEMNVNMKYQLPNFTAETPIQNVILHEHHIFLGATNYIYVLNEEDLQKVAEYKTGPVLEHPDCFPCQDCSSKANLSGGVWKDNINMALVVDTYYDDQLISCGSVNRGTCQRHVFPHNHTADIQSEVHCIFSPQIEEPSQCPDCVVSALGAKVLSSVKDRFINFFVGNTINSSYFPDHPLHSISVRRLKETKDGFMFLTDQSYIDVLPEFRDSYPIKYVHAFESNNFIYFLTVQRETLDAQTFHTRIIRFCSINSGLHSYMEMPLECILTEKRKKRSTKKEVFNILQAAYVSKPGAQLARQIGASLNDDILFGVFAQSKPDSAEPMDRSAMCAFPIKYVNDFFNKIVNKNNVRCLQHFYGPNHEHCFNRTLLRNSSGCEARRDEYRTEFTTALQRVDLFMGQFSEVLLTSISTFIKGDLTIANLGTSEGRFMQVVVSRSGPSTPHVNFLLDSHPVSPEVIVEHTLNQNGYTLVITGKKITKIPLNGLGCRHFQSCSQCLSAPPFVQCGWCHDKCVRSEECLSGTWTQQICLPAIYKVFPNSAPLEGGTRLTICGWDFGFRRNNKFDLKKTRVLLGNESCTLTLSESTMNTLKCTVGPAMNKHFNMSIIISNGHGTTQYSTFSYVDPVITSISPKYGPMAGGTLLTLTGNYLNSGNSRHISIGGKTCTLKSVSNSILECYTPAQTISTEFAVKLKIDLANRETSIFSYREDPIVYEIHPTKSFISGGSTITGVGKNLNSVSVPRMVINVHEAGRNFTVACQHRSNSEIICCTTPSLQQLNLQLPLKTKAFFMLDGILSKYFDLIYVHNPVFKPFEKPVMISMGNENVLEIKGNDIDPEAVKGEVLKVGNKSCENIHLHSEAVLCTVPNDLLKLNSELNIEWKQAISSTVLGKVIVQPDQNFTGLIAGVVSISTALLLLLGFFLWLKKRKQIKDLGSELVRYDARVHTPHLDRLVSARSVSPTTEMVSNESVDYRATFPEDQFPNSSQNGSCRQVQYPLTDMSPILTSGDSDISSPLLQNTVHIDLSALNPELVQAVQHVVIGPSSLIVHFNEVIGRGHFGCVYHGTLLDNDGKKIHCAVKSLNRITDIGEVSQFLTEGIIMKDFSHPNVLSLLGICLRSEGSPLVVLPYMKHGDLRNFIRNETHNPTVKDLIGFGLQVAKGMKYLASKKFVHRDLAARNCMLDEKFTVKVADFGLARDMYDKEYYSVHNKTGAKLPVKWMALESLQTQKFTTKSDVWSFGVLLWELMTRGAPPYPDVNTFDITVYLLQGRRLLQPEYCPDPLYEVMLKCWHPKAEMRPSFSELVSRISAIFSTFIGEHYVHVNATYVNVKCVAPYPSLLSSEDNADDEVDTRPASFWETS

AXL = AXL (Homo sapiens (Human), UniProt P30530); test: AXL autophosphorylation ELISA in A-172 cells; type: cell-based; settings: cellular, Gas6-stimulated, phospho-AXL ELISA
Outline: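 A-172 glioblastoma cells, serum-starved 24 h, took compounds for 1 h (8-point curve, 0.3% DMSO) before 15 min stimulation with 1 μg/mL recombinant human Gas6. Lysate phospho-AXL measured by ELISA against a phospho-AXL standard, normalized to DMSO (100%) and reference inhibitor (0%); IC50 from 4-parameter logistic fit.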

Sequence of KDR (P35968 20-1356): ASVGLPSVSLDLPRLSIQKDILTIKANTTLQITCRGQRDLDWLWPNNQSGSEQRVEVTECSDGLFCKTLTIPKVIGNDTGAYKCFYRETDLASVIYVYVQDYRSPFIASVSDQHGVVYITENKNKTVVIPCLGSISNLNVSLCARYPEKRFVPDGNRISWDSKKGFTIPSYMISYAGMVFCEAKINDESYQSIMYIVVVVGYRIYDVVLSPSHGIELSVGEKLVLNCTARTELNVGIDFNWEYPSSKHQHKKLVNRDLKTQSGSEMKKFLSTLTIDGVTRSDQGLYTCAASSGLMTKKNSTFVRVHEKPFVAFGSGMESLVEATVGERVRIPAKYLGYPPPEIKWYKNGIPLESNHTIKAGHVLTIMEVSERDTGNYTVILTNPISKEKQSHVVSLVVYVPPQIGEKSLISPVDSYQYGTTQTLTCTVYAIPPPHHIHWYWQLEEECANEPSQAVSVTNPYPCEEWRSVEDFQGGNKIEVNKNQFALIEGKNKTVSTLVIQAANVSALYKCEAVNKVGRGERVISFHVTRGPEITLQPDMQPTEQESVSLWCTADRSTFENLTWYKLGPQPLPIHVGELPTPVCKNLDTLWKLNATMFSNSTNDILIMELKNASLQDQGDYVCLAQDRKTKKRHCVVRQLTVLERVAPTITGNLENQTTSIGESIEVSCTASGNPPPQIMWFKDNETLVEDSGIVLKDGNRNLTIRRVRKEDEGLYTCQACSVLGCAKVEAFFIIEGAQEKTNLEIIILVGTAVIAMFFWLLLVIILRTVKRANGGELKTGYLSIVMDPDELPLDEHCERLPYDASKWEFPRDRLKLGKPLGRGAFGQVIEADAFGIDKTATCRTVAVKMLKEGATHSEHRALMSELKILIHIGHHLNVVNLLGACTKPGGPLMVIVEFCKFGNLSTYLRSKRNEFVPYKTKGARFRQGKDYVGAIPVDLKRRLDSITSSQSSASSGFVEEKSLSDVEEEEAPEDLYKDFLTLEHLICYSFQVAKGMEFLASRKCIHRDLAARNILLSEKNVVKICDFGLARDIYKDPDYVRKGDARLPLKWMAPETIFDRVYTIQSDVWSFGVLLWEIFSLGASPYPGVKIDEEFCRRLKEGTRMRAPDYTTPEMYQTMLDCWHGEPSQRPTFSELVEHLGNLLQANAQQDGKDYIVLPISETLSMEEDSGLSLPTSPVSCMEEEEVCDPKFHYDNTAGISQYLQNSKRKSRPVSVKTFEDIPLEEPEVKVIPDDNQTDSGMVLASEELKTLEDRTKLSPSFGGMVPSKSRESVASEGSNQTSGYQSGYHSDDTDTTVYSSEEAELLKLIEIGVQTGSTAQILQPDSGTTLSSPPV
Sequence of AXL (P30530 26-894): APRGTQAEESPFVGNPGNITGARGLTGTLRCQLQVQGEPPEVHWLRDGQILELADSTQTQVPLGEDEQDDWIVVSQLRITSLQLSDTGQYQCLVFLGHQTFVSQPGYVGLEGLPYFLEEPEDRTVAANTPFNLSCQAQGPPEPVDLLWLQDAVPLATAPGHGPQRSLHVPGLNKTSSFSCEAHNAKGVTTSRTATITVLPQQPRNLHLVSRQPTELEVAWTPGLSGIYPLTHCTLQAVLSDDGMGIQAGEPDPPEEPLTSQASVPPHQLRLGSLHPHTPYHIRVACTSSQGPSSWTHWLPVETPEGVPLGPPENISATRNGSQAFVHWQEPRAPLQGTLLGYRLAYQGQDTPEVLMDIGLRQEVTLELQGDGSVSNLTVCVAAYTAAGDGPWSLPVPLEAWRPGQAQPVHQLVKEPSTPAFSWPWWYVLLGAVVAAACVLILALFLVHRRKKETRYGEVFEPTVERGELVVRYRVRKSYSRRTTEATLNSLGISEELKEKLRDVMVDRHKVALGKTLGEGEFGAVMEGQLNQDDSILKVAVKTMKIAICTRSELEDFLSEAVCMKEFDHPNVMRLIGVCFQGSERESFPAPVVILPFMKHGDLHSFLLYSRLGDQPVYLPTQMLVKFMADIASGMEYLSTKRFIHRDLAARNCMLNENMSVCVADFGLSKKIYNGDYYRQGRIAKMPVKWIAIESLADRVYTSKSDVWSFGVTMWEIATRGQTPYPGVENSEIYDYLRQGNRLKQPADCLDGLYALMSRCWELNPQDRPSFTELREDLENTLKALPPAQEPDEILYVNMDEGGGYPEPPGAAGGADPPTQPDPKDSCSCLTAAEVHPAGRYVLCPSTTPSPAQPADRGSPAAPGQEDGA

| Structure (SMILES) | IC50 (Met [1]) [µM] | IC50 (Human Axl) [µM] | IC50 (Mer [2]) [µM] | IC50 (KDR) [µM] | IC50 (Mer [3]) [µM] | IC50 (Met [4]) [µM] | IC50 (AXL) [µM] |
| --- | --- | --- | --- | --- | --- | --- | --- |
| COc1cc2nccc(Oc3ccc(NC(=O)C4(C(=O)Nc5ccc(F)cc5)CC4)cn3)c2cc1C(=O)O [Compound 13, 4-[5-[[1-[(4-Fluorophenyl)carbamoyl]cyclopropanecarbonyl]-amino]pyridin-2-yl]oxy-7-methoxyquinoline-6-carboxylic acid] | 0.1 to 1 | 0.1 to 1 | 0.1 to 1 | – | – | – | – |
| CNC(=O)c1cc2c(Oc3ncc(NC(=O)C4(C(=O)Nc5ccc(F)cc5)CC4)cc3Cl)ccnc2cc1OCCO [Compound 37, 1-N′-[5-Chloro-6-[7-(2-hydroxyethoxy)-6-(methylcarbamoyl)quinolin-4-yl]oxypyridin-3-yl]-1-N-(4-fluorophenyl)cyclopropane-1,1-dicarboxamide] | – | – | – | > 0.3 | 0.1 to 0.3 | 0.01 to 0.1 | 0.01 to 0.1 |
| CNC(=O)c1cc2c(Oc3ncc(NC(=O)C4(C(=O)Nc5ccc(F)cc5)CC4)cc3Cl)ccnc2cc1OCC(C)O (centres unmarked) [Compound 50, 1-N′-[5-Chloro-6-[7-(2-hydroxypropoxy)-6-(methylcarbamoyl)-quinolin-4-yl]oxypyridin-3-yl]-1-N-(4-fluorophenyl)cyclopropane-1,1-dicarboxamide] | – | – | – | > 0.3 | 0.01 to 0.1 | 0.01 to 0.1 | 0.01 to 0.1 |
| COc1nc2c(Oc3ncc(NC(=O)C4(C(=O)Nc5ccc(F)cc5)CC4)cc3F)ccnc2cc1OCCN1CCOCC1 [Compound 123, 1-N′-[5-Fluoro-6-[[6-methoxy-7-(2-morpholin-4-ylethoxy)-1,5-naphthyridin-4-yl]oxy]pyridin-3-yl]-1-N-(4-fluorophenyl)cyclopropane-1,1-dicarboxamide] | – | – | – | > 0.3 | 0.01 to 0.1 | 0.01 to 0.1 | 0.01 to 0.1 |
| CCNC(=O)c1cc2c(Oc3ncc(NC(=O)C4(C(=O)Nc5ccc(F)cc5)CC4)cc3Cl)ccnc2cc1OC [Compound 20, 1-N′-[5-Chloro-6-[6-(ethylcarbamoyl)-7-methoxyquinolin-4-yl]oxypyridin-3-yl]-1-N-(4-fluorophenyl)cyclopropane-1,1-dicarboxamide] | – | – | – | > 0.3 | 0.01 to 0.1 | 0.01 to 0.1 | 0.01 to 0.1 |
| NC(=O)c1cc2c(Oc3ncc(NC(=O)C4(C(=O)Nc5ccc(F)cc5)CC4)cc3F)ccnc2cc1OCCO [Compound 39, 1-N′-[6-[6-Carbamoyl-7-(2-hydroxyethoxy)quinolin-4-yl]oxy-5-fluoropyridin-3-yl]-1-N-(4-fluorophenyl)cyclopropane-1,1-dicarboxamide] | – | – | – | > 0.3 | 0.1 to 0.3 | 0.01 to 0.1 | 0.01 to 0.1 |

Next, values leading:

| IC50 (Met [1]) [µM] | IC50 (Human Axl) [µM] | IC50 (Mer [2]) [µM] | IC50 (KDR) [µM] | IC50 (Mer [3]) [µM] | IC50 (Met [4]) [µM] | IC50 (AXL) [µM] | Structure (SMILES) |
| --- | --- | --- | --- | --- | --- | --- | --- |
| – | – | – | > 0.3 | 0.01 to 0.1 | 0.01 to 0.1 | ≤ 0.01 | COc1cc2nccc(Oc3ncc(NC(=O)C4(C(=O)Nc5ccc(F)cc5)CC4)cc3F)c2cc1-c1ncc[nH]1 [Compound 72, 1-N′-[5-Fluoro-6-[6-(1H-imidazol-2-yl)-7-methoxyquinolin-4-yl]oxypyridin-3-yl]-1-N-(4-fluorophenyl)cyclopropane-1,1-dicarboxamide] |
| – | – | – | > 0.3 | 0.1 to 0.3 | 0.1 to 0.3 | 0.1 to 0.3 | COc1nc2c(Oc3ncc(NC(=O)C4(C(=O)Nc5ccc(F)cc5)CC4)cc3F)ccnc2cc1OCC(N)=O [Compound 124, 1-N′-[6-[[7-(2-Amino-2-oxoethoxy)-6-methoxy-1,5-naphthyridin-4-yl]oxy]-5-fluoropyridin-3-yl]-1-N-(4-fluorophenyl)cyclopropane-1,1-dicarboxamide] |
| – | – | – | > 0.3 | 0.01 to 0.1 | 0.01 to 0.1 | 0.01 to 0.1 | COc1cc2nccc(Oc3ncc(NC(=O)C4(C(=O)Nc5ccc(F)cc5)CC4)cc3F)c2cc1-c1nnco1 [Compound 67, 1-N′-[5-Fluoro-6-[7-methoxy-6-(1,3,4-oxadiazol-2-yl)quinolin-4-yl]oxypyridin-3-yl]-1-N-(4-fluorophenyl)cyclopropane-1,1-dicarboxamide] |
| – | – | – | > 0.3 | 0.01 to 0.1 | 0.01 to 0.1 | ≤ 0.01 | COc1cc2nccc(Oc3ncc(NC(=O)C4(C(=O)Nc5ccc(F)cc5)CC4)cc3F)c2cc1C(N)=O [Compound 21, 1-N′-[6-(6-Carbamoyl-7-methoxyquinolin-4-yl)oxy-5-fluoropyridin-3-yl]-1-N-(4-fluorophenyl)cyclopropane-1,1-dicarboxamide] |
| – | – | – | > 0.3 | 0.01 to 0.1 | 0.01 to 0.1 | 0.01 to 0.1 | NC(=O)c1cc2c(Oc3ncc(NC(=O)C4(C(=O)Nc5ccc(F)cc5)CC4)cc3Cl)ccnc2cc1OCCO [Compound 38, 1-N′-[6-[6-Carbamoyl-7-(2-hydroxyethoxy)quinolin-4-yl]oxy-5-chloropyridin-3-yl]-1-N-(4-fluorophenyl)cyclopropane-1,1-dicarboxamide] |
| – | – | – | > 0.3 | 0.01 to 0.1 | 0.01 to 0.1 | 0.01 to 0.1 | COc1cc2nccc(Oc3ncc(NC(=O)C4(C(=O)Nc5ccc(F)cc5)CC4)cc3Cl)c2cc1-c1nnco1 [Compound 68, 1-N′-[5-Chloro-6-[7-methoxy-6-(1,3,4-oxadiazol-2-yl)quinolin-4-yl]oxypyridin-3-yl]-1-N-(4-fluorophenyl)cyclopropane-1,1-dicarboxamide] |

Source: patent US11673897B2, “Compounds for the treatment of kinase-dependent disorders” (Exelixis, Inc., priority 2018, dated 2023)
